From ChEMBL document CHEMBL1201862, “PubChem BioAssay data set” (2004)
Activity calls are given as the source filed them.

Assays:
Cytochrome P450 1A2 = molecular target: T1, Cytochrome P450 1A2 (Homo sapiens, UniProt P05177);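 further: PubChem cytochrome P450 panel assay, CYP1A2 panel member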
T1 sequence (P05177 whole entry): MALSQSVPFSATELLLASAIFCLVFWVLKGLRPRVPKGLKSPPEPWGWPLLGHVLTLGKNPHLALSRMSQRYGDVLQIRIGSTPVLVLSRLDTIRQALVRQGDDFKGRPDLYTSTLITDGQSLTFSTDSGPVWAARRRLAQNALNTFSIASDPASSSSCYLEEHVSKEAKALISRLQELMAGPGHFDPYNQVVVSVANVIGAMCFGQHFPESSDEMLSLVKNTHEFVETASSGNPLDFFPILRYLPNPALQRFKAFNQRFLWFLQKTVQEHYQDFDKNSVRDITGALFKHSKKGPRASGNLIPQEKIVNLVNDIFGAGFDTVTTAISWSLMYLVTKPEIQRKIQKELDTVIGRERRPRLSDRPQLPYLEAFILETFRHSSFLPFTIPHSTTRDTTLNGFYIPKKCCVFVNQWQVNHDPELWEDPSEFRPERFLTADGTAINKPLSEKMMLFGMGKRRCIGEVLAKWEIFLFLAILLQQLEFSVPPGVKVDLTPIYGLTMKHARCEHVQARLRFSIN

INS1 = assay: beta cell apoptosis inhibitors, cytokine rescue, dose response, luminescence, retest (AID 449756); format: functional, cell-based; details: Rattus norvegicus;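 further: cell death triggered by IL-1 beta plus TNF-alpha plus IFN-gamma mixture; protective hits raise ATP signal compared with cytokine alone wells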
[1] = molecular target: Luciferin 4-monooxygenase (Photinus pyralis, UniProt P08659); assay: firefly luciferase enzyme inhibitors, dose response, biochemical, luminescence (AID 1891)
[2] = Luminescence Cell-Based Dose Confirmation HTS to Identify Inhibitors of Platelet Dense Granule Release. [Related pubchem assays: 1663 (Primary HTS), 1678 (Summary of Project)]; format: functional
[3] = Luminescence Cell-Based Dose Response HTS to Identify Activators of Luciferase Translation or Activity in H4 […] Cells. [Related pubchem assays: 1829 (Project Summary), 1814 (Primary HTS)]; format: functional
[4] = Luminescence Cell-Based Dose Confirmation HTS to Identify Activators of 5'UTR Stem-Loop Driven Alpha-Synuclein mRNA Translation in H4 Neuroglioblastoma Cells. [Related pubchem assays: 1829 (Project Summary), 1814 (Primary HTS)]; format: functional
H4 = assay: Luminescence Cell-Based Dose Response HTS to Identify Activators of 5'UTR Stem-Loop Driven Prion Protein mRNA Translation in H4 Neuroglioblastoma Cells. [Related pubchem assays: 1829 (Project Summary), 1814 (Primary HTS)]; format: functional; details: Homo sapiens
[5] = Luminescence Cell-Based Dose Retest to Confirm Inhibitors of Cancer Stem Cells. [Related pubchem assays (depositor defined):AID2717, AID2721]; format: functional; details: Homo sapiens
[6] = cytotoxicity toward NIH3T3 fibroblasts, dose response, counter-screen, cell-based, ATP luminescence, mouse fibroblasts (AID 2010); format: functional;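 further: cells exposed to compound for about 90 hours before reading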
[7] = inhibitors of intracellular T. cruzi replication, confirmation, NIH3T3 host cells, beta-gal luminescence (AID 2044); format: functional, cell-based;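 further: intracellular parasites grown in NIH/3T3 mouse fibroblasts as host cells; luminescent beta-galactosidase reporter signal from transgenic T. cruzi replicating inside host cells; inhibitors lower the luminescence signal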
[8] = molecular target: T2, Rac GTPase-activating protein 1 (Homo sapiens, UniProt Q9H0H5); assay: MgcRacGAP GTPase-activating activity inhibitors, confirmation, biochemical, ADP Hunter fluorescence, primary and confirmatory (AID 624330); format: functional
T2 sequence (Q9H0H5 whole entry): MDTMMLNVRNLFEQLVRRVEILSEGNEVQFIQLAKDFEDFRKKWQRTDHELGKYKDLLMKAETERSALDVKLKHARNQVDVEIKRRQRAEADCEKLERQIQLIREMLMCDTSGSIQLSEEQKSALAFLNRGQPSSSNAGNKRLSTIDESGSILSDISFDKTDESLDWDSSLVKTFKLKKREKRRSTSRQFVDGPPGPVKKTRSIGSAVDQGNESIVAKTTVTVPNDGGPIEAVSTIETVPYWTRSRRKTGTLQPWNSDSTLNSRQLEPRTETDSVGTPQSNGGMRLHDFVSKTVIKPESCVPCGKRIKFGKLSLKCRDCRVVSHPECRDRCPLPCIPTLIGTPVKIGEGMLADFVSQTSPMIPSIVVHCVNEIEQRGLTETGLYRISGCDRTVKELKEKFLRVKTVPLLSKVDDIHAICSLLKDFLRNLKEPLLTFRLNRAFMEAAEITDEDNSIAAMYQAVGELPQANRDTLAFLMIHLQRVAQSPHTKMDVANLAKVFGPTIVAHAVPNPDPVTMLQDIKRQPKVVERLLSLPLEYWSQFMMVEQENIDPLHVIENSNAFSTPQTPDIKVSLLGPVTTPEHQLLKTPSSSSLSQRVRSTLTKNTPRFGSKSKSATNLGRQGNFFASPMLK

Cytochrome P450 2C19 = Cytochrome P450 2C19 (Homo sapiens, UniProt P33261); assay: Cytochrome panel assay with activity outcomes. Panel member name: p450-cyp2c19 Compounds with AC50 equal or less than 10 uM are considered active; format: functional; details: read-out: AC50
Cytochrome P450 3A4 = Cytochrome P450 3A4 (Homo sapiens, UniProt P08684);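 further: CYP3A4 tested as one member of a cytochrome P450 panel screen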
Cytochrome P450 2C9 = Cytochrome P450 2C9 (Homo sapiens, UniProt P11712)
[9] = HEp-2 cell cytotoxicity, dose response, cytotoxicity control for RSV inhibitor project, HTS (AID 2410); format: functional; details: human respiratory syncytial virus

Sequence of Cytochrome P450 2C9 (P11712 whole entry): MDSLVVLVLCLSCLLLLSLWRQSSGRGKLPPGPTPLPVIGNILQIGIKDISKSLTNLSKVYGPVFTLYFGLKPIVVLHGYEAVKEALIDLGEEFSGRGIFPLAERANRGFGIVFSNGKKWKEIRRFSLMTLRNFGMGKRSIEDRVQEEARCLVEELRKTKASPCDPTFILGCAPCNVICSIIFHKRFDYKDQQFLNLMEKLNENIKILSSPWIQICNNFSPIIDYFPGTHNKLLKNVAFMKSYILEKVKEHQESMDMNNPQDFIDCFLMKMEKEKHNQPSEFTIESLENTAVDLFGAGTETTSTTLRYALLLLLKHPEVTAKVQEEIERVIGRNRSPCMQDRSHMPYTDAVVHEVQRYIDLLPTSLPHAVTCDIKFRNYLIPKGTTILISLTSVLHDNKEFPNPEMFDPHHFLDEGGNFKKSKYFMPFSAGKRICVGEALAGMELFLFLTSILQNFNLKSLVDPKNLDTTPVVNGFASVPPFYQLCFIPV
Sequence of Luciferin 4-monooxygenase (P08659 whole entry): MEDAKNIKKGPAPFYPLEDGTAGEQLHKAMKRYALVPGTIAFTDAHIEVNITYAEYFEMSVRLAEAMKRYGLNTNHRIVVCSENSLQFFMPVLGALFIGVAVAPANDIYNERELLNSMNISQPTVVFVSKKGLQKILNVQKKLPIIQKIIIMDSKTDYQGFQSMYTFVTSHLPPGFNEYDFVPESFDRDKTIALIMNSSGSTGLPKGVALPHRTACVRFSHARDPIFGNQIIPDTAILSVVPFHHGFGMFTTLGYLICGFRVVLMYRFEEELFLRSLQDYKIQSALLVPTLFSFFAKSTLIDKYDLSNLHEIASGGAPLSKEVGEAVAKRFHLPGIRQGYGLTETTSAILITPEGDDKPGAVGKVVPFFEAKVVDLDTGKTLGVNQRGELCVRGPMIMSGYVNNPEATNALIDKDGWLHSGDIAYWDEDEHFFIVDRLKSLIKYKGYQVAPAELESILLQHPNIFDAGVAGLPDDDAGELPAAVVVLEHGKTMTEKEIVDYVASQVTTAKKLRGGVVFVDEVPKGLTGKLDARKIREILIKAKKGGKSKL
Sequence of Cytochrome P450 2C19 (P33261 whole entry): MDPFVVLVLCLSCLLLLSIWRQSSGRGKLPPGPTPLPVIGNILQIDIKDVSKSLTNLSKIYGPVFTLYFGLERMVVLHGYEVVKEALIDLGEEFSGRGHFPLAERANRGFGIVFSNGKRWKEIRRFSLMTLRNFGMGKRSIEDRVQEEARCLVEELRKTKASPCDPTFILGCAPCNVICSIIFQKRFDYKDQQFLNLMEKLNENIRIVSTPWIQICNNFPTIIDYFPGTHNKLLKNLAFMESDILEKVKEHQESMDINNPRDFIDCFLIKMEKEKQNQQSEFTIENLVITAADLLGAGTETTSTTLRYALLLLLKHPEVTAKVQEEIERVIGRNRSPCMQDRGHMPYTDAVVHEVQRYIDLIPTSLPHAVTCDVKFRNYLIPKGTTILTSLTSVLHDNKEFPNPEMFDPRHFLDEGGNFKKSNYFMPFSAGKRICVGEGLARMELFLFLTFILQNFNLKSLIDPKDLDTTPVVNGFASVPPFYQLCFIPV
Sequence of Cytochrome P450 3A4 (P08684 whole entry): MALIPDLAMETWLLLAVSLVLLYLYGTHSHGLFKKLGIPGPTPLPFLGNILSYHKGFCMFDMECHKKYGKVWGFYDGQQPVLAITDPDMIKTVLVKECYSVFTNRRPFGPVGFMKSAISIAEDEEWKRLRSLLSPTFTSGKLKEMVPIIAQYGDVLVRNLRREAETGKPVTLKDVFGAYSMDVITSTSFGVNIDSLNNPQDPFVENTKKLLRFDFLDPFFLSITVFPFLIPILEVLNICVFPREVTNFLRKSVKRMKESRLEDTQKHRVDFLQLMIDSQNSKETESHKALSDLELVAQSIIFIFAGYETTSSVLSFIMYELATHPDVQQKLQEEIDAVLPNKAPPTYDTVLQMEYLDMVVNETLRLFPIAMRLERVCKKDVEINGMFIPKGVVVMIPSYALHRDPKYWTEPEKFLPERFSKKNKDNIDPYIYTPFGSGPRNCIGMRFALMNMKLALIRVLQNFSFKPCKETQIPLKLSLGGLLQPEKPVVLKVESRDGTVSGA

## Nc1nc(-c2ccc3ccccc3c2)cc(-c2cc(-c3ccc4ccccc4c3)nc(N)n2)n1
Cytochrome P450 1A2
  AC50: 0.501 µM (inconclusive)

## O=C(Nc1cccnc1)C1(F)C(F)(F)C(F)(F)C(F)(F)C(F)(F)C1(F)F
INS1
  AC50: 3.18 µM (active)

## CC(C)[C@@H](CO)NC(=O)c1ccc2c3n(nc2c1)-c1ccccc1CO3
[1]
  EC50: 6.1 µM (active)
[2]
  EC50: 2.69 µM (active)

## C=C(C)CSc1nc2cc(Cl)c[nH]c-2n1
[3]
  EC50: 50.8 µM (active)
[4]
  EC50: 19 µM (active)
H4
  EC50: 84.5 µM (active)

## O=C(CCCN1C(=O)/C(=C/c2ccccc2)SC1=S)NCCCn1ccnc1
[5]
  AC50: 76.3 µM (active)
INS1
  AC50: 21.2 µM (active)

## O=C(NC(=S)Nc1ccc(N2CCCCC2)c(Cl)c1)c1ccc2c(c1)OCCO2
[5]
  AC50: 2.54 µM (active)

## O=C1c2ccccc2C(=O)c2c(NC3CCCCC3)ccc(Nc3ccc(S(=O)(=O)O)cc3)c21
Cytochrome P450 1A2
  AC50: 1.26 µM (inconclusive)

## Cc1cc(OCCCCCN2CCCC2)ccc1Cl
[6]
  EC50: 19.2 µM (active)
[7]
  EC50: 1.23 µM (active)
[8]
  IC50: 131 µM (active)

## COc1cccc(OCc2cc(C(=O)N(C)Cc3nccn3C)no2)c1
[3]
  EC50: 15.6 µM (active)
[4]
  EC50: 9.91 µM (active)
H4
  EC50: > 120 µM (not active)

## O=C(Nc1ccccc1)/C(=C\c1ccc2c(c1)OCO2)NC(=O)c1ccco1
Cytochrome P450 1A2
  AC50: 25.1 µM (inconclusive)
Cytochrome P450 2C19
  AC50: 22.4 µM (inconclusive)
Cytochrome P450 3A4
  AC50: 20 µM (inconclusive)

## CC(C)c1ccc(NC(S)=NC2CCCCCC2)cc1
[3]
  EC50: 14.3 µM (active)
[4]
  EC50: 0.166 µM (active)
H4
  EC50: 22 µM (active)

## CCCOc1ccc(C(=O)NC(=S)Nc2nc3ccccc3s2)cc1
[3]
  EC50: 22.5 µM (active)
[4]
  EC50: 20.9 µM (active)
H4
  EC50: 48.3 µM (active)

## O=C(CNCc1ccco1)Nc1cccc(S(=O)(=O)N2CCCCC2)c1
[8]
  IC50: 169 µM (active)

## c1cc(N2CCCC3(CCNCC3)C2)ccn1
Cytochrome P450 2C19
  AC50: 25.1 µM (inconclusive)
Cytochrome P450 3A4
  AC50: 12.6 µM (inconclusive)
Cytochrome P450 2C9
  AC50: 25.1 µM (inconclusive)

## CCO[C@H]1OC(C(=O)N2CCN(Cc3ccc4c(c3)OCO4)CC2)=C[C@@H](c2csc3ccccc23)[C@@H]1CCCO
INS1
  AC50: 6.83 µM (active)

## C[C@@H](C(=O)Nc1ccc2ccccc2c1)[C@@H]1C[C@@]1(C)[C@@H](N)c1ccccc1
Cytochrome P450 2C9
  AC50: 25.1 µM (inconclusive)

## O=C(Nc1ccc(Cl)cc1)OCc1cc(-c2ccccc2Cl)on1
[1]
  EC50: > 112 µM (not active)
Cytochrome P450 2C9
  AC50: 1.12 µM (inconclusive)
[2]
  EC50: > 112 µM (not active)

## c1ccc(C2CSc3ccccc3N2)cc1 (stereo unspecified)
[3]
  EC50: 27.5 µM (active)
[4]
  EC50: 16.9 µM (active)
H4
  EC50: 22.5 µM (active)

## Cc1ccc(OCCCC(=O)N2CCOCC2)cc1
Cytochrome P450 1A2
  AC50: 25.1 µM (inconclusive)
Cytochrome P450 3A4
  AC50: 25.1 µM (inconclusive)
Cytochrome P450 2C9
  AC50: 39.8 µM (inconclusive)

## Cc1cc(O)nc2ccc(S(=O)(=O)NC3CCCCC3)cc12
[1]
  EC50: > 112 µM (not active)
[2]
  EC50: 3.55 µM (active)

## CSc1nc(C)c2c(n1)N(c1ccc(C(C)C)cc1)CC2
Cytochrome P450 2C19
  AC50: 17.8 µM (inconclusive)
Cytochrome P450 2C9
  AC50: 11.2 µM (inconclusive)

## CNC[C@H](CC1CCCCC1)NC[C@H](CO)NCCc1cccc(C(F)(F)F)c1
[5]
  AC50: 7.61 µM (active)
[9]
  CC50: 12.5 µM (active)

## COc1ccc(C(=O)Cc2cnn(-c3ccccc3)c2)c(O)c1
[3]
  EC50: 1.58 µM (active)
[4]
  EC50: 0.135 µM (active)
H4
  EC50: > 120 µM (not active)

## O=C(Cn1cnc2c(cnn2-c2ccccc2)c1=O)OCc1ccccc1
[1]
  EC50: > 112 µM (not active)
[2]
  EC50: > 112 µM (not active)

## CCOC(=O)c1c(-c2ccc(OC)cc2)csc1NC(=O)CCN1C(=O)c2ccccc2C1=O
Cytochrome P450 1A2
  AC50: 12.6 µM (inconclusive)
Cytochrome P450 3A4
  AC50: 4.47 µM (inconclusive)

## COc1ccc(-c2nc3ccccc3c(=O)n2N)cc1
Cytochrome P450 2C19
  AC50: 0.631 µM (inconclusive)
Cytochrome P450 2C9
  AC50: 2.82 µM (inconclusive)

## CCCC/C=C/C(NC(=O)c1ccc(-c2ccccc2)cc1)c1ccccc1 (stereo unspecified)
Cytochrome P450 1A2
  AC50: 15.8 µM (inconclusive)

## CCOC(=O)c1c(C)oc2cc(Br)c(OC(=O)N3CCOCC3)cc12
[1]
  EC50: > 112 µM (not active)
[2]
  EC50: > 112 µM (not active)

## CNC(=O)[C@H](C)[C@@H]1C[C@@]1(C)[C@@H](NC(=O)OCc1ccccc1)c1ccccc1
Cytochrome P450 1A2
  AC50: 20 µM (inconclusive)

## Cc1ccc2c(c1)cc1c(O)nncn12
[3]
  EC50: 9.57 µM (active)
[4]
  EC50: 15.6 µM (active)
H4
  EC50: 24.7 µM (active)

## Cc1ccc(CS(=O)(=O)Cc2ccc(C(=O)NCC3CCCO3)o2)cc1 (stereo unspecified)
Cytochrome P450 2C19
  AC50: 31.6 µM (inconclusive)
Cytochrome P450 3A4
  AC50: 15.8 µM (inconclusive)
Cytochrome P450 2C9
  AC50: 39.8 µM (inconclusive)

## O=C(NCc1cccs1)c1ccc(N2CCCCC2)nc1
[3]
  EC50: 30.9 µM (active)
[4]
  EC50: > 120 µM (not active)
H4
  EC50: 31.5 µM (active)

## COC(=O)c1ccc(/C=C/c2nc(O)c3ccccc3n2)cc1
[1]
  EC50: 17.7 µM (active)
[2]
  EC50: 7.02 µM (active)

## O=C(NC(=S)Nc1cccc(Cl)c1N1CCCC1)c1ccc(-c2cccc([N+](=O)[O-])c2)o1
Cytochrome P450 1A2
  AC50: 25.1 µM (inconclusive)
Cytochrome P450 2C9
  AC50: 5.01 µM (inconclusive)

## Cc1ccccc1NCc1ccc([N+](=O)[O-])s1
[5]
  AC50: 11 µM (active)

## CCOc1cc(S(=O)(=O)Nc2ccc(CC)cc2)ccc1Cl
[5]
  AC50: 6.17 µM (active)

## COc1ccc(Cc2nnc(NC(=O)CSc3ccc(C)cc3)s2)cc1OC
Cytochrome P450 2C19
  AC50: 0.891 µM (inconclusive)
Cytochrome P450 2C9
  AC50: 2.51 µM (inconclusive)

## O=C(NC(C(=O)c1ccccc1)n1ccc(=O)[nH]c1=O)c1ccccc1 (stereo unspecified)
[3]
  EC50: 11.9 µM (active)
[4]
  EC50: 7.39 µM (active)
H4
  EC50: 16.4 µM (active)

## O=C(CCSc1ccccc1)N1CCN(c2ccccc2)CC1
[3]
  EC50: 15.5 µM (active)
[4]
  EC50: > 120 µM (not active)
H4
  EC50: 28.4 µM (active)

## O=C1NC(=O)C(=Cc2ccco2)C(=O)N1
[8]
  IC50: 141 µM (active)

## COc1ccc2cc(C(=O)N/N=C/c3sc4ccccc4c3O)ccc2c1
[5]
  AC50: 1.61 µM (active)
INS1
  AC50: 3.02 µM (active)

## C(=N\N1CCOCC1)/c1nc(-c2ccccc2)n2ccccc12
[8]
  IC50: 22.3 µM (active)

## O=C(Cc1ccccc1)N/N=C/c1ccc2c(c1)OCO2
[3]
  EC50: 103 µM (active)
[4]
  EC50: 1.52 µM (active)
H4
  EC50: > 120 µM (not active)

## CCOC(=O)C(/C=N/c1ccc(C(O)(C(=O)OCC)C(F)(F)F)cc1C)=C(/O)OCC (stereo unspecified)
INS1
  AC50: 6.01 µM (active)

## O=C(Nc1ccc(Br)cc1)C1Cc2ccccc2O/C1=N\O (stereo unspecified)
[3]
  EC50: 7.85 µM (active)
[4]
  EC50: 11.3 µM (active)
H4
  EC50: 9.69 µM (active)

## CCNC(=O)[C@H]1O[C@@H](n2cnc3c(N)ncnc32)[C@H](O)[C@@H]1O [NECA]
[2]
  EC50: < 0.088 µM (active)

## O=c1oc(-c2ccc(O)c(O)c2)cc2cccc(O)c12 [THUNBERGINOL A]
[8]
  IC50: 19.7 µM (active)
